The values below come from patent publication US8546588B2, “Substituted hydroxamic acids and uses thereof” (Millennium Pharmaceuticals, Inc., priority 2010, dated 2013).

As usually defined, the pIC50 is −log10 of the IC50, conventionally taken in molar units. A low value points to a large IC50.

pIC50: −log10 of the molar value.

This assay concerns the target T1, purified human HDAC6 (Homo sapiens, UniProt Q9UBN7).
T1 construct: purchased BPS Bioscience 5006
T1 sequence (Q9UBN7 1-1215): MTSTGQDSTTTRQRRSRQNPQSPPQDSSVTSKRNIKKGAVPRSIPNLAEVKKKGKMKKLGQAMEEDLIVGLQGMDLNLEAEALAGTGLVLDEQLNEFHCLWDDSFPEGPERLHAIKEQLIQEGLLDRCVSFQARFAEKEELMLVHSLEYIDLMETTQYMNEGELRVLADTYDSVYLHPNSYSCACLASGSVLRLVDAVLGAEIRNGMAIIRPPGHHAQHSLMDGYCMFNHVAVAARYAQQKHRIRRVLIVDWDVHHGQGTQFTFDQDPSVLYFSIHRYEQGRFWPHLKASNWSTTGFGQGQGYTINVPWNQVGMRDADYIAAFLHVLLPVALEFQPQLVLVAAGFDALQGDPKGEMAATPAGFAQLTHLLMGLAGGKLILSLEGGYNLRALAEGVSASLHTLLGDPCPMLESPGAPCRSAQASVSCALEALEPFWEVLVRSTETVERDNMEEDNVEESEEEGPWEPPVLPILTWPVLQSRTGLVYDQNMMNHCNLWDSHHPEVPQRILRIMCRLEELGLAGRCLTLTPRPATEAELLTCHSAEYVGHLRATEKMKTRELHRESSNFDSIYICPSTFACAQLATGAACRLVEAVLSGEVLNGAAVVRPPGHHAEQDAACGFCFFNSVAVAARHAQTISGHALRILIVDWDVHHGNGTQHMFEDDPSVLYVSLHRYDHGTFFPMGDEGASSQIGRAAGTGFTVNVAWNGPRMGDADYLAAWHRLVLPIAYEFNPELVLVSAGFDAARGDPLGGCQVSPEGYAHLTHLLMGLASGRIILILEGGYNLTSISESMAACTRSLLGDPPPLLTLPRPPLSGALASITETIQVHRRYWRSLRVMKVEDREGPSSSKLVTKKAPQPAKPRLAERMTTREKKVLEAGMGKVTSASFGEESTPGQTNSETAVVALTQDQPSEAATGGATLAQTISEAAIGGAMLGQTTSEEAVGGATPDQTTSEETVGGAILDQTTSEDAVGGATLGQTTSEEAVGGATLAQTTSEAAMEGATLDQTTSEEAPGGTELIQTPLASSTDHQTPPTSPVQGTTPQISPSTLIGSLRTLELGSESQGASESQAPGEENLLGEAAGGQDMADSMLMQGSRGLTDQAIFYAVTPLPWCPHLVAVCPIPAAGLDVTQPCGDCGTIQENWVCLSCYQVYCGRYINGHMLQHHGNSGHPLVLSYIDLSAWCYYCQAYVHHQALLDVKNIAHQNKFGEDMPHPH
The assay is described as follows: HDAC6 Enzyme Assay. It counts as biochemical. Particulars: substrate Ac-Arg-Gly-Lys(Ac)-AMC peptide, 1 hour at 30° C. The method, then: To measure the inhibition of HDAC6 activity, purified human HDAC6 (BPS Bioscience; Cat. No. 5006) is incubated with substrate Ac-Arg-Gly-Lys(Ac)-AMC peptide (Bachem Biosciences; Cat. No. I-1925) for 1 hour at 30° C. in the presence of test compounds or vehicle DMSO control. The reaction is stopped with the HDAC inhibitor trichostatin A (Sigma; Cat. No. T8552) and the amount of Arg-Gly-Lys-AMC generated is quantitated by digestion with trypsin (Sigma; Cat. No. T1426) and subsequent measurement of the amount of AMC released using a fluorescent plate reader (Pherastar; BMG Technologies) set at Ex 340 nm and Em 460 nm. Concentration response curves are generated by calculating the fluorescence increase in test compound-treated samples relative to DMSO-treated controls, and enzyme inhibition (IC50) values are determined from those curves.
The molecule `CC(NC(=O)c1cc2cc(Cl)ccc2o1)c1ncc(C(=O)NO)s1` (centres unmarked) [Compound I-50, 2-(1-{[(5-chloro-1-benzofuran-2-yl)carbonyl]amino}ethyl)-N-hydroxy-1,3-thiazole-5-carboxamide] gave a pIC50 of more than 7.00.
`CC(NC(=O)Nc1ccc(OC(F)F)cc1)c1ccc(C(=O)NO)s1` (centres unmarked) [Compound I-37, 5-{1-[({[4-(difluoromethoxy)phenyl]amino}carbonyl)amino]ethyl}-N-hydroxythiophene-2-carboxamide] showed a pIC50 of more than 7.00.
As for `C[C@@H](NC(=O)C(C)(C)C)c1ncc(C(=O)NO)s1` [Compound I-166, 2-{(1R)-1-[(2,2-dimethylpropanoyl)amino]ethyl}-N-hydroxy-1,3-thiazole-5-carboxamide], the negative-log IC50 (pIC50) is less than 6.30.
In turn, `CC(NS(=O)(=O)c1ccccc1F)c1ccc(C(=O)NO)s1` (centres unmarked) [Compound I-47, 5-(1-{[(2-fluorophenyl)sulfonyl]amino}ethyl)-N-hydroxythiophene-2-carboxamide] showed a pIC50 of 6.30 to 7.00.
As for `C[C@H](NC(=O)c1cc2ccccc2o1)c1ncc(C(=O)NO)s1` [Compound I-159, 2-{(1S)-1-[(1-benzofuran-2-ylcarbonyl)amino]ethyl}-N-hydroxy-1,3-thiazole-5-carboxamide], the figure is more than 7.00; as for `CC(NC(=O)C1(c2ccc(Cl)cc2)CCC1)c1ncc(C(=O)NO)s1` (centres unmarked) [Compound I-55, 2-[1-({[1-(4-chlorophenyl)cyclobutyl]carbonyl}amino)ethyl]-N-hydroxy-1,3-thiazole-5-carboxamide], less than 6.30.
Consider `COc1ccc(C)cc1NC(=O)NC(C)c1ccc(C(=O)NO)s1` (centres unmarked) [Compound I-19, N-hydroxy-5-[1-({[(2-methoxy-5-methylphenyl)amino]carbonyl}amino)ethyl]thiophene-2-carboxamide], for which the pIC50 was more than 7.00.
For `C[C@@H](NC(=O)C(C)(C)C)c1cc(C(=O)NO)on1` [Compound I-182, 3-{(1R)-1-[(2,2-dimethylpropanoyl)amino]ethyl}-N-hydroxyisoxazole-5-carboxamide], the negative-log IC50 (pIC50) was less than 6.30.
In turn, `CC(NC(=O)c1cc2ccccc2s1)c1ncc(C(=O)NO)s1` (centres unmarked) [Compound I-54, 2-{1-[(1-benzothien-2-ylcarbonyl)amino]ethyl}-N-hydroxy-1,3-thiazole-5-carboxamide] had a pIC50 of more than 7.00.
As for `CC(NC(=O)Nc1ccc(C(F)(F)F)cc1)c1ccc(C(=O)NO)s1` (centres unmarked) [Compound I-45, N-hydroxy-5-{1-[({[4-(trifluoromethyl)phenyl]amino}carbonyl)amino]ethyl}thiophene-2-carboxamide], the figure is more than 7.00; as for `C[C@@H](NC(=O)c1cc(Cl)c(Cl)n1C)c1ccc(C(=O)NO)s1` [Compound I-17, 4,5-dichloro-N-((1R)-1-{5-[(hydroxyamino)carbonyl]-2-thienyl}ethyl)-1-methyl-1H-pyrrole-2-carboxamide], more than 7.00; as for `Cc1nc(-c2ccccn2)sc1C(=O)N[C@H](C)c1ncc(C(=O)NO)s1` [Compound I-167, N-((1R)-1-{5-[(hydroxyamino)carbonyl]-1,3-thiazol-2-yl}ethyl)-4-methyl-2-pyridin-2-yl-1,3-thiazole-5-carboxamide], more than 7.00.
For the molecule `CC(NC(=O)Nc1ccc(F)cc1)c1ccc(C(=O)NO)s1` (centres unmarked) [Compound I-2, 5-[1-({[(4-fluorophenyl)amino]carbonyl}amino)ethyl]-N-hydroxythiophene-2-carboxamide], the pIC50 was more than 7.00.
Turning to `Cc1nc(-c2ccccn2)sc1C(=O)N[C@@H](C)c1ncc(C(=O)NO)s1` [Compound I-168, N-((1S)-1-{5-[(hydroxyamino)carbonyl]-1,3-thiazol-2-yl}ethyl)-4-methyl-2-pyridin-2-yl-1,3-thiazole-5-carboxamide], the pIC50 is more than 7.00.
The molecule `Cc1nc(-c2ccccn2)sc1C(=O)N[C@H](C)c1cc(C(=O)NO)on1` [Compound I-163, N-hydroxy-3-((1R)-1-{[(4-methyl-2-pyridin-2-yl-1,3-thiazol-5-yl)carbonyl]amino}ethyl)isoxazole-5-carboxamide] had a pIC50 of less than 6.30.
With `C[C@H](NC(=O)c1ccc(-c2ccccc2)cc1)c1ncc(C(=O)NO)s1` [Compound I-161, 2-{(1S)-1-[(biphenyl-4-ylcarbonyl)amino]ethyl}-N-hydroxy-1,3-thiazole-5-carboxamide] the figure was more than 7.00.
`C[C@@H](NC(=O)c1ccc(-c2ccccc2)cc1)c1cc(C(=O)NO)on1` [Compound I-158, 3-{(1R)-1-[(biphenyl-4-ylcarbonyl)amino]ethyl}-N-hydroxyisoxazole-5-carboxamide] had a pIC50 of less than 6.30.
As for `C[C@@H](NC(=O)C(C)(C)C)c1ccc(C(=O)NO)s1` [Compound I-6, 5-{(1R)-1-[(2,2-dimethylpropanoyl)amino]ethyl}-N-hydroxythiophene-2-carboxamide], the pIC50 was less than 6.30.
`CC(NC(=O)c1cc2ccccc2n1C)c1ncc(C(=O)NO)s1` (centres unmarked) [Compound I-51, N-(1-{5-[(hydroxyamino)carbonyl]-1,3-thiazol-2-yl}ethyl)-1-methyl-1H-indole-2-carboxamide] gave a pIC50 of more than 7.00.
With `Cc1ccc(NC(=O)NC(C)c2ccc(C(=O)NO)s2)cc1C` (centres unmarked) [Compound I-38, 5-[1-({[(3,4-dimethylphenyl)amino]carbonyl}amino)ethyl]-N-hydroxythiophene-2-carboxamide] the figure was more than 7.00; with `Cc1ccccc1NC(=O)NC(C)c1ccc(C(=O)NO)s1` (centres unmarked) [Compound I-40, N-hydroxy-5-[1-({[(2-methylphenyl)amino]carbonyl}amino)ethyl]thiophene-2-carboxamide], more than 7.00.
Regarding `C[C@H](NC(=O)C1(C)CCCCC1)c1ncc(C(=O)NO)s1` [Compound I-171, N-hydroxy-2-((1S)-1-{[(1-methylcyclohexyl)carbonyl]amino}ethyl)-1,3-thiazole-5-carboxamide], the pIC50 is less than 6.30.
The molecule `COc1ccc(C(=O)N[C@H](C)c2ncc(C(=O)NO)s2)cc1` [Compound I-169, N-hydroxy-2-{(1R)-1-[(4-methoxybenzoyl)amino]ethyl}-1,3-thiazole-5-carboxamide] gave a pIC50 of 6.30 to 7.00.
On to `Cc1c(C(=O)N[C@H](C)c2ccc(C(=O)NO)s2)oc2ccccc12` [Compound I-15, N-((1R)-1-{5-[(hydroxyamino)carbonyl]-2-thienyl}ethyl)-3-methyl-1-benzofuran-2-carboxamide], for which the pIC50 was more than 7.00.
`CC(NC(=O)Nc1cc(Cl)cc(Cl)c1)c1ccc(C(=O)NO)s1` (centres unmarked) [Compound I-4, 5-[1-({[(3,5-dichlorophenyl)amino]carbonyl}amino)ethyl]-N-hydroxythiophene-2-carboxamide]: the pIC50 is 6.30 to 7.00.
`CC(NC(=O)C(C)(C)C)c1ncc(C(=O)NO)s1` (centres unmarked) [Compound I-53, 2-{1-[(2,2-dimethylpropanoyl)amino]ethyl}-N-hydroxy-1,3-thiazole-5-carboxamide] gave a pIC50 of less than 6.30.
Take `Cc1cccc(NC(=O)NC(C)c2ccc(C(=O)NO)s2)c1` (centres unmarked) [Compound I-30, N-hydroxy-5-[1-({[(3-methylphenyl)amino]carbonyl}amino)ethyl]thiophene-2-carboxamide]: the pIC50 was more than 7.00.
For the molecule `COc1ccc(C(=O)N[C@H](C)c2cc(C(=O)NO)on2)cc1` [Compound I-164, N-hydroxy-3-{(1R)-1-[(4-methoxybenzoyl)amino]ethyl}isoxazole-5-carboxamide], the negative logarithm of the IC50 (pIC50) is less than 6.30.
`CC(NC(=O)NCc1ccccc1)c1ccc(C(=O)NO)s1` (centres unmarked) [Compound I-18, 5-(1-{[(benzylamino)carbonyl]amino}ethyl)-N-hydroxythiophene-2-carboxamide] showed a pIC50 of more than 7.00.
